ChEMBL document CHEMBL1201862, “PubChem BioAssay data set” (2004)
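96-well plates; 48 h exposure; 5 concentrations. Endpoints by linear interpolation between flanking doses. Not reached: highest tested concentration assigned. Here, GI50 denotes the concentration required for 50% inhibition of growth.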 Activity calls are given as the source filed them. Rule as the data show it: active = GI50 up to about 1.1 µM and inactive = higher.

Legend:
Test in all cases: NCI tumour cell line growth inhibition, 48 h
HT-29 = system: HT-29
786-0 = system: 786-0
NCI-H460 = system: NCI-H460
TK-10 = system: TK-10
MDA-MB-435 = system: MDA-MB-435
U-251 = system: U-251
SK-MEL-2 = system: SK-MEL-2
HCC 2998 = system: HCC 2998
NCI-H23 = system: NCI-H23
OVCAR-8 = system: OVCAR-8
OVCAR-5 = system: OVCAR-5
K562 = system: K562
SNB-19 = system: SNB-19
SK-MEL-28 = system: SK-MEL-28
RPMI-8226 = system: RPMI-8226
SW-620 = system: SW-620
Malme-3M = system: Malme-3M
HOP-92 = system: HOP-92
MDA-N = system: MDA-N
DU-145 = system: DU-145

Measured: GI50

CC(=O)NNc1nc(C)c(C(/C=C/c2ccc3c(c2)OCO3)=N/NC(=O)c2ccncc2)s1
inactive: HT-29 > 100 µM | 786-0 > 100 µM | NCI-H460 > 100 µM | TK-10 > 100 µM | MDA-MB-435 > 100 µM | U-251 > 100 µM | SK-MEL-2 > 100 µM | HCC 2998 > 100 µM | NCI-H23 > 100 µM | OVCAR-8 > 100 µM | OVCAR-5 > 100 µM | K562 > 100 µM | SNB-19 > 100 µM | SK-MEL-28 > 100 µM | RPMI-8226 > 100 µM | SW-620 > 100 µM | Malme-3M > 100 µM | HOP-92 > 100 µM | MDA-N > 100 µM

CN(C)CCCNCc1cccc2ccccc12
inactive: HT-29 > 100 µM | 786-0 > 100 µM | NCI-H460 > 100 µM | TK-10 > 100 µM | MDA-MB-435 > 100 µM | U-251 > 100 µM | SK-MEL-2 > 100 µM | NCI-H23 > 100 µM | OVCAR-8 > 100 µM | OVCAR-5 > 100 µM | K562 > 100 µM | SNB-19 > 100 µM | DU-145 > 100 µM | SK-MEL-28 > 100 µM | RPMI-8226 > 100 µM | SW-620 > 100 µM | Malme-3M > 100 µM | HOP-92 78.3 µM | MDA-N > 100 µM

Cc1cc(-c2nc3ccccc3s2)ccc1NS(=O)(=O)O
inactive: HT-29 > 4.65 µM | 786-0 > 8.85 µM | TK-10 > 26.1 µM | MDA-MB-435 > 7.08 µM | NCI-H23 > 7.11 µM | OVCAR-8 > 4.85 µM | OVCAR-5 > 4.65 µM | K562 4.65 µM | SNB-19 > 24.4 µM | DU-145 > 22.2 µM | SK-MEL-28 > 42 µM | RPMI-8226 > 4.65 µM | SW-620 > 4.65 µM | Malme-3M > 6.56 µM | MDA-N > 6.04 µM

N#Cc1sc2c(c1OC(=O)c1ccccc1)c(=O)n(-c1ccccc1)c(=S)n2-c1ccccc1
inactive: HT-29 32.7 µM | 786-0 30.3 µM | NCI-H460 30.3 µM | TK-10 28.8 µM | MDA-MB-435 24 µM | U-251 20.1 µM | SK-MEL-2 28.6 µM | HCC 2998 25.2 µM | NCI-H23 21.2 µM | OVCAR-8 36.5 µM | K562 27.6 µM | SNB-19 36.1 µM | DU-145 31 µM | SK-MEL-28 25.7 µM | RPMI-8226 23.6 µM | SW-620 28.8 µM | Malme-3M 20.5 µM | MDA-N 26.3 µM

CC(C)N(c1cc2c(cc1F)c(=O)c(C(=O)O)cn2-c1ccc(N2CCN(C)CC2)cn1)C(C)C
inactive: HT-29 > 100 µM | 786-0 > 100 µM | NCI-H460 > 100 µM | TK-10 > 100 µM | MDA-MB-435 > 100 µM | U-251 > 100 µM | NCI-H23 > 100 µM | OVCAR-8 > 100 µM | OVCAR-5 > 100 µM | K562 > 100 µM | SNB-19 > 100 µM | DU-145 > 100 µM | SK-MEL-28 > 100 µM | RPMI-8226 > 100 µM | SW-620 > 100 µM | Malme-3M > 100 µM | HOP-92 > 100 µM | MDA-N > 100 µM

Cc1cc(/N=C/c2ccc(F)cc2)n(-c2ccccc2)n1
inactive: HT-29 48.9 µM | 786-0 > 100 µM | NCI-H460 41.5 µM | TK-10 57 µM | MDA-MB-435 74.1 µM | U-251 > 100 µM | SK-MEL-2 > 100 µM | NCI-H23 82.2 µM | OVCAR-8 > 100 µM | OVCAR-5 > 100 µM | K562 59.3 µM | SNB-19 > 100 µM | DU-145 > 100 µM | SK-MEL-28 > 100 µM | RPMI-8226 21.3 µM | SW-620 > 100 µM | Malme-3M 75.5 µM | HOP-92 89.1 µM | MDA-N 73.3 µM

CC(NC(=O)CNP(=O)(c1ccccc1)c1ccccc1)C(=O)NC(Cc1ccccc1)C(=O)OCc1ccccc1 (configuration not stated)
inactive: HT-29 92.9 µM | 786-0 22.2 µM | TK-10 > 100 µM | MDA-MB-435 50.2 µM | U-251 23.4 µM | SK-MEL-2 51.2 µM | NCI-H23 37.8 µM | OVCAR-8 > 100 µM | OVCAR-5 > 100 µM | K562 > 10 µM | SNB-19 51.2 µM | DU-145 > 100 µM | SK-MEL-28 23.8 µM | RPMI-8226 33 µM | SW-620 45.7 µM | Malme-3M 60.8 µM | HOP-92 > 100 µM | MDA-N 43.3 µM

COc1nc2c(c(=O)n1C)N[C@@H]1[C@@H](O)[C@H](O)CO[C@@H]1N2
inactive: HT-29 > 100 µM | 786-0 > 100 µM | NCI-H460 > 100 µM | TK-10 > 100 µM | MDA-MB-435 > 100 µM | U-251 > 100 µM | SK-MEL-2 > 100 µM | OVCAR-8 > 100 µM | OVCAR-5 > 100 µM | K562 > 100 µM | SNB-19 > 100 µM | DU-145 > 100 µM | SK-MEL-28 > 100 µM | RPMI-8226 > 100 µM | SW-620 > 100 µM | Malme-3M 39.4 µM | MDA-N > 100 µM

Cc1cc(C)cc(C(=N)c2ccccc2Cc2cccc3ccccc23)c1
inactive: HT-29 9.66 µM | 786-0 15.2 µM | NCI-H460 13.5 µM | TK-10 25.6 µM | MDA-MB-435 17.2 µM | U-251 40.6 µM | SK-MEL-2 37.8 µM | NCI-H23 15.7 µM | OVCAR-8 18 µM | OVCAR-5 16.6 µM | K562 16.3 µM | SNB-19 19.5 µM | DU-145 16.2 µM | SK-MEL-28 16.9 µM | RPMI-8226 20.3 µM | SW-620 15.2 µM | Malme-3M 12.8 µM | HOP-92 13.3 µM | MDA-N 21.1 µM

CCCNc1c(Cl)cc(Cl)c2[nH]c3ccccc3c(=O)c12
inactive: HT-29 22.5 µM | 786-0 30.2 µM | TK-10 51.3 µM | MDA-MB-435 39.9 µM | U-251 37.1 µM | SK-MEL-2 39.9 µM | HCC 2998 41.3 µM | NCI-H23 27.7 µM | OVCAR-8 40.3 µM | OVCAR-5 > 100 µM | K562 28.3 µM | SNB-19 18.4 µM | SK-MEL-28 > 100 µM | RPMI-8226 30.8 µM | SW-620 88.5 µM | Malme-3M 43.3 µM | HOP-92 3.42 µM | MDA-N 50.6 µM

COc1ccc(/C=C2\CCC(C)C3=C2N=c2s/c(=C/c4cccc(Br)c4)c(=O)n2C3c2ccc(OC)c(OC)c2)cc1OC (configuration not stated)
inactive: HT-29 > 100 µM | 786-0 > 100 µM | TK-10 > 100 µM | MDA-MB-435 > 100 µM | U-251 > 100 µM | SK-MEL-2 > 100 µM | OVCAR-8 > 100 µM | OVCAR-5 > 100 µM | K562 > 100 µM | SNB-19 > 100 µM | DU-145 > 100 µM | SK-MEL-28 > 100 µM | RPMI-8226 > 100 µM | SW-620 > 100 µM | HOP-92 > 100 µM | MDA-N > 100 µM

O=C(O)c1ccc(Nc2nc3ccc(C(F)(F)F)cc3nc2-c2ccccc2)cc1
inactive: HT-29 > 10 µM | 786-0 37.7 µM | NCI-H460 29.6 µM | TK-10 23.1 µM | MDA-MB-435 34.9 µM | U-251 31.4 µM | HCC 2998 14.5 µM | NCI-H23 48 µM | OVCAR-8 30.9 µM | OVCAR-5 78 µM | K562 45.2 µM | SNB-19 52.2 µM | DU-145 > 10 µM | SK-MEL-28 37.8 µM | RPMI-8226 30.1 µM | SW-620 45.7 µM | Malme-3M 33.2 µM | MDA-N 47.6 µM

CCOC(=O)c1nc2ccccc2nc1Oc1ccc(C#N)cc1
inactive: HT-29 > 100 µM | 786-0 > 100 µM | NCI-H460 > 100 µM | TK-10 > 100 µM | MDA-MB-435 > 100 µM | U-251 > 100 µM | SK-MEL-2 > 100 µM | OVCAR-8 > 100 µM | OVCAR-5 > 100 µM | K562 > 100 µM | SNB-19 > 100 µM | DU-145 > 100 µM | SK-MEL-28 > 100 µM | RPMI-8226 > 100 µM | SW-620 > 100 µM | Malme-3M > 100 µM | HOP-92 96.6 µM | MDA-N > 100 µM

CCC(C)N1CN(c2ccccc2)C2(CCN(CCCSc3ccc(F)cc3)CC2)C1=O (configuration not stated)
inactive: HT-29 2.15 µM | 786-0 2.89 µM | TK-10 3.27 µM | MDA-MB-435 3.05 µM | U-251 3.72 µM | HCC 2998 2.04 µM | NCI-H23 4.01 µM | OVCAR-8 6.17 µM | OVCAR-5 2.1 µM | K562 2.22 µM | SNB-19 5.52 µM | DU-145 3.03 µM | SK-MEL-28 11.6 µM | RPMI-8226 2.31 µM | SW-620 4.06 µM | Malme-3M 4.48 µM | MDA-N 2.9 µM

COc1cc2nc3n(c(=O)c2cc1OC)CCCCC3
inactive: HT-29 > 100 µM | 786-0 > 100 µM | NCI-H460 > 100 µM | TK-10 > 100 µM | MDA-MB-435 > 100 µM | U-251 > 100 µM | SK-MEL-2 > 100 µM | NCI-H23 > 100 µM | OVCAR-8 > 100 µM | OVCAR-5 > 100 µM | K562 > 100 µM | DU-145 > 100 µM | SK-MEL-28 > 100 µM | RPMI-8226 83.9 µM | SW-620 > 100 µM | Malme-3M > 100 µM | HOP-92 > 100 µM | MDA-N > 100 µM
